Measured values from US9108963B2, “Pyrazolopyridine, pyrazolopyrazine, pyrazolopyrimidine, pyrazolothiophene and pyrazolothiazole compounds as MGLUR4 allosteric potentiators, compositions, and methods of treating neurological dysfunction” (Vanderbilt University, priority 2010, dated 2015).

Legend:
[1] = biological target: mGluR4 (UniProt Q14833); assay: mGluR4 potentiation assay (Ca2+ or thallium flux fluorescence, agonist EC20); assay type: cell-based, human or rat; settings: Table 3; read-out: mGlu4 EC50
Method: The disclosed compounds and compositions can be evaluated for their ability to act as a potentiator of metabotropic glutamate receptor activity, in particular mGluR4 activity, by any suitable known methodology known in the art. For example, Chinese Hamster Ovary (CHO) cells transfected with human mGluR4 or HEK cells co-transfected with rat mGluR4 and the G-protein regulated Inwardly Rectifying Potassium channel (GIRK) were plated in clear bottom assay plates for assay in a Hamamatsu FDSS Fluorometric Plate Reader. The cells were loaded with either a Ca2+-sensitive fluorescent dye or the thallium responsive dye and the plates were washed and placed into a suitable kinetic plate reader. For human mGluR4 assays, a fluorescence baseline was established for 3-5 seconds, the disclosed compounds were then added to the cells, and the response in cells was measured. Approximately two and a half minutes later, a concentration of mGluR4 orthosteric agonist (e.g. glutamate or L-AP4) eliciting approximately 20% (EC20) of the maximal agonist response was added to the cells, and the response was measured. Two minutes later, a concentration of mGluR4 agonist (e.g. glutamate or L-AP4) eliciting 80% (EC80) of the maximal agonist response was added to the cells, and the response was measured. For rat mGluR4/GIRK experiments, a baseline was established for approximately five seconds, disclosed compounds were added, and either an EC20 or EC80 concentration of agonist was added approximately two and one half minutes later.
The above described assay operated in two modes. In the first mode, a range of concentrations of the disclosed compounds are added to cells, followed by a single fixed concentration of agonist. If the compound acts as a potentiator, an EC50 value for potentiation and a maximum extent of potentiation by the compound at this concentration of agonist is determined by non-linear curve fitting. If the compound acts as a noncompetitive antagonist, an IC50 value is determined by non-linear curve fitting. In the second mode, several fixed concentrations of the disclosed compounds are added to various wells on a plate, followed by a range in concentrations of agonist for each concentration of disclosed compound. The EC50 values for the agonist at each concentration of compound are determined by non-linear curve fitting. A decrease in the EC50 value of the agonist with increasing concentrations of the sample compound (a leftward shift of the agonist concentration-response curve) is an indication of the degree of mGluR4 potentiation at a given concentration of the sample compound. A decrease in the maximal response of the agonist with increasing concentrations of the sample compounds, with or without a rightward shift in agonist potency, is an indication of the degree of noncompetitive antagonism at mGluR4. The second mode also indicates whether the sample compounds also affect the maximum response to mGluR4 to agonists.

[2] = biological target: T1, mGluR5 (Rattus norvegicus, UniProt P31424); assay: mGluR5 negative allosteric modulation, decrease in response to non-maximal glutamate in HEK cells; assay type: cell-based; settings: Table 3; read-out: mGlu5 IC50
T1 construct: expressed in transfected cells; host or cells: human embryonic kidney (HEK) cells
Source text: Embodiments of the present invention are also mGluR5 negative allosteric modulators. Accordingly, in one aspect, the invention relates to compounds that are also useful as negative allosteric modulators of the metabotropic glutamate receptor subtype 5 (mGluR5). Negative allosteric modulators are non-competitive antagonists and can include a range of maximal antagonist activity from partial antagonists to inverse agonists. In one aspect, the present invention relates to compounds that allosterically modulate mGluR5 receptor activity, affecting the sensitivity of mGluR5 receptors to agonists without acting as orthosteric agonists themselves. […] The compounds of the invention can be useful in the treatment neurological and psychiatric disorders associated with glutamate dysfunction and other diseases in which metabotropic glutamate receptors are involved, as further described herein. […] In further aspect, the human embryonic kidney cells are transfected with human mGluR5. In yet a further aspect, human embryonic kidney cells are transfected with mGluR5 of a mammal.
In further aspect, the human embryonic kidney cells are transfected with human mGluR5. In yet a further aspect, human embryonic kidney cells are transfected with mGluR5 of a mammal.

T1 sequence (P31424 21-1203): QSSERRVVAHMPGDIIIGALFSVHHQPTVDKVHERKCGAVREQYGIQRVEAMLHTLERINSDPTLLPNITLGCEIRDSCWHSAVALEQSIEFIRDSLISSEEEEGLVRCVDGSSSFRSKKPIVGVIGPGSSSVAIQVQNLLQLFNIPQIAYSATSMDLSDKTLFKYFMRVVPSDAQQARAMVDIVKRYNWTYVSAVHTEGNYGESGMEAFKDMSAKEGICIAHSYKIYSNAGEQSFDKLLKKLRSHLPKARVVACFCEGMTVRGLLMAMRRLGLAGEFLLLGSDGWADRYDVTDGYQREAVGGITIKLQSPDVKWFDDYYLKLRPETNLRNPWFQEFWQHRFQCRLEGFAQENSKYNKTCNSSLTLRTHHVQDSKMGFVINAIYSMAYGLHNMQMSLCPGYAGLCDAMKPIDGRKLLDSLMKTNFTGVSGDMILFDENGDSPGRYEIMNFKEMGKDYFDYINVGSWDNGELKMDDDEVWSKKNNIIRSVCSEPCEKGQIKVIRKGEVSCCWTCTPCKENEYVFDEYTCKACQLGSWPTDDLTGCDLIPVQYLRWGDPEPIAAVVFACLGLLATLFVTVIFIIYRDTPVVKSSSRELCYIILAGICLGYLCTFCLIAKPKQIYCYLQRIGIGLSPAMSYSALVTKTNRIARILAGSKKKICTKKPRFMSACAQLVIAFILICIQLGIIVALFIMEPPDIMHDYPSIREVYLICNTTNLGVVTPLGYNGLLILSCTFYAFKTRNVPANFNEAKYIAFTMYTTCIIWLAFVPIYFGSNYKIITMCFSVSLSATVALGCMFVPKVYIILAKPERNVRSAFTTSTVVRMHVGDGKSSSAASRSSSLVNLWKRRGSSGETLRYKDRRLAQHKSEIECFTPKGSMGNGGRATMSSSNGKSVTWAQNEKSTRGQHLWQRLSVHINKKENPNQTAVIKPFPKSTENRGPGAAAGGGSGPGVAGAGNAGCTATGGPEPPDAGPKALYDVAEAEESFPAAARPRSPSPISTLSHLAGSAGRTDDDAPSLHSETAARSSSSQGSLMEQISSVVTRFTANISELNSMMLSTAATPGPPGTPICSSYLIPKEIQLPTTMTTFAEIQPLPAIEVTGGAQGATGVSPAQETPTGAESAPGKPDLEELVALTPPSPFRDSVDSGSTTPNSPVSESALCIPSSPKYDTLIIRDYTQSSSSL

Structure (SMILES)	EC50 [1] [µM]	IC50 [2] [µM]
Clc1cc(Nc2n[nH]c3cccnc23)ccc1Nc1cccnc1 [Example 127, 2-chloro-N4-(1H-pyrazolo[4,3-b]pyridin-3-yl)-N1-(pyridin-3-yl)benzene-1,4-diamine]	0.0531	0.022
Clc1cc(Nc2n[nH]c3cccnc23)ccc1Nc1ncccn1 [Example 118, 2-chloro-N4-(1H-pyrazolo[4,3-b]pyridin-3-yl)-N1-(pyrimidin-2-yl)benzene-1,4-diamine]	0.0439	3.6
